Results as given in ChEMBL document CHEMBL1201862, “PubChem BioAssay data set” (2004).
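Cells were grown in 96-well plates and exposed to each compound for 48 hours at five concentrations; endpoints were interpolated linearly between bracketing concentrations, or set to the highest concentration if not reached. Here, GI50 denotes the concentration required for 50% inhibition of growth.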 Activity calls are given as the source filed them. Rule as the data show it: active = GI50 up to about 1.1 µM and inactive = higher.

Key:
Experiment in all cases: inhibition of tumour cell growth, NCI panel, 48 h
UACC-257 = tested on: UACC-257
SR = tested on: SR
BT-549 = tested on: BT-549
SN12C = tested on: SN12C
SF-295 = tested on: SF-295
IGROV-1 = tested on: IGROV-1
MDA-MB-231 = tested on: MDA-MB-231
Malme-3M = tested on: Malme-3M
RPMI-8226 = tested on: RPMI-8226
A498 = tested on: A498
K562 = tested on: K562
HCT-15 = tested on: HCT-15
UACC-62 = tested on: UACC-62
SK-OV-3 = tested on: SK-OV-3
HT-29 = tested on: HT-29
HOP-62 = tested on: HOP-62
OVCAR-8 = tested on: OVCAR-8
SK-MEL-5 = tested on: SK-MEL-5
U-251 = tested on: U-251
NCI/ADR-RES = tested on: NCI/ADR-RES

| SMILES | GI50 (UACC-257) | GI50 (SR) | GI50 (BT-549) | GI50 (SN12C) | GI50 (SF-295) | GI50 (IGROV-1) | GI50 (MDA-MB-231) | GI50 (Malme-3M) | GI50 (RPMI-8226) | GI50 (A498) | GI50 (K562) | GI50 (HCT-15) [µM] | GI50 (UACC-62) | GI50 (SK-OV-3) | GI50 (HT-29) | GI50 (HOP-62) | GI50 (OVCAR-8) | GI50 (SK-MEL-5) | GI50 (U-251) | GI50 (NCI/ADR-RES) |
| --- | --- | --- | --- | --- | --- | --- | --- | --- | --- | --- | --- | --- | --- | --- | --- | --- | --- | --- | --- | --- |
| N[C@H]1c2c(Br)sc(Br)c2C(=O)[C@H]1O | 14.2 µM (inactive) | 2.69 µM (inactive) | 6.3 µM (inactive) | 1.56 µM (inactive) | 21.7 µM (inactive) | 14 µM (inactive) | 18.7 µM (inactive) | 11.6 µM (inactive) | 27.4 µM (inactive) | > 100 µM (inactive) | 3.44 µM (inactive) | 6.78 | 6.79 µM (inactive) | 12.3 µM (inactive) | 11.2 µM (inactive) | 18.2 µM (inactive) | 12.9 µM (inactive) | 12.5 µM (inactive) | 14.4 µM (inactive) | 16 µM (inactive) |
| OC[C@H]1CC(c2nn[nH]n2)[C@H](O)[C@@H]1O (stereo partly specified) |  | > 100 µM (inactive) | > 100 µM (inactive) | > 100 µM (inactive) | > 100 µM (inactive) | > 100 µM (inactive) | > 100 µM (inactive) | > 100 µM (inactive) | > 100 µM (inactive) | > 100 µM (inactive) | > 100 µM (inactive) | > 100 | > 10 µM (inactive) | > 100 µM (inactive) | > 100 µM (inactive) | > 100 µM (inactive) | > 100 µM (inactive) | > 100 µM (inactive) | > 100 µM (inactive) | > 100 µM (inactive) |
| COc1cc(/C=C2\CC(C)C/C(=C\c3ccc(O)c(OC)c3)C2=O)ccc1O (stereo unspecified) | 3.87 µM (inactive) | 2.86 µM (inactive) | 3.23 µM (inactive) | 2.56 µM (inactive) | 10.6 µM (inactive) | 2.4 µM (inactive) | 2.06 µM (inactive) | 1.9 µM (inactive) | 3.58 µM (inactive) | 2.52 µM (inactive) | 4.48 µM (inactive) | 1.73 | 1.85 µM (inactive) | 3.49 µM (inactive) | 6.37 µM (inactive) | 3.46 µM (inactive) | 9.2 µM (inactive) | 1.82 µM (inactive) | 2.38 µM (inactive) | 17.5 µM (inactive) |
| Nc1ccc(CCSSCCc2ccc(N)cc2)cc1 | 20 µM (inactive) | 0.991 µM (active) | 25.5 µM (inactive) | 22.9 µM (inactive) | 39 µM (inactive) | 37.1 µM (inactive) | 39.3 µM (inactive) | 12.2 µM (inactive) | 25.1 µM (inactive) | 32.1 µM (inactive) | 6.4 µM (inactive) | 23.4 | 26.5 µM (inactive) | 43.6 µM (inactive) | 21.8 µM (inactive) | 55.2 µM (inactive) | 28 µM (inactive) | 19.8 µM (inactive) | 19.6 µM (inactive) | 23.2 µM (inactive) |
| CC1=C(C(=O)c2ccccc2)C23C(=O)N(c4ccccc4)C(=O)C2=C(O)C=CC3(O)N1 (stereo unspecified) | 44.5 µM (inactive) | 15.4 µM (inactive) | 20.4 µM (inactive) | 30.3 µM (inactive) | 43.4 µM (inactive) | 25.6 µM (inactive) | 28 µM (inactive) | 25.2 µM (inactive) | 29.8 µM (inactive) | 40 µM (inactive) | 10.9 µM (inactive) | 24.6 | 20.1 µM (inactive) |  | 13.6 µM (inactive) | 32.5 µM (inactive) | 34 µM (inactive) | 17.6 µM (inactive) | 28.1 µM (inactive) | 51.4 µM (inactive) |
| COC(=O)[C@](NC(=O)OCc1ccccc1)([C@@H](C)[S+]([O-])c1ccc(C)cc1)C(F)(F)F (stereo partly specified) | 24.8 µM (inactive) | 22.9 µM (inactive) | 22.4 µM (inactive) |  | 32.7 µM (inactive) | 24.6 µM (inactive) | 59.6 µM (inactive) | 33 µM (inactive) | 26.5 µM (inactive) | 31.4 µM (inactive) | 34.4 µM (inactive) | 34.7 | 37.3 µM (inactive) | 53.1 µM (inactive) | 24.8 µM (inactive) | > 100 µM (inactive) | 35.2 µM (inactive) | 16.4 µM (inactive) | 36.8 µM (inactive) | 28.7 µM (inactive) |
| CNC(=O)c1cc(NC(=O)N(CCC#N)CCN(C(=O)N[C@@H](Cc2ccccc2)C(=O)N[C@@H](CC(C)C)C(=O)NC)c2ccccc2)ccc1OC | 19.5 µM (inactive) | 21 µM (inactive) | > 69.5 µM (inactive) | > 51.6 µM (inactive) | > 79.3 µM (inactive) | 24.4 µM (inactive) | > 38.3 µM (inactive) | 17.3 µM (inactive) | 56.8 µM (inactive) | > 49.5 µM (inactive) |  | > 100 | 23.2 µM (inactive) | > 100 µM (inactive) | > 100 µM (inactive) | > 100 µM (inactive) | > 91.2 µM (inactive) | 29.9 µM (inactive) | > 100 µM (inactive) | > 100 µM (inactive) |
